The record followed here is article PMC7792585, “Trospium Chloride Transport by Mouse Drug Carriers of the Slc22 and Slc47 Families” (International Journal of Molecular Sciences, 2020).

The target in data set [1] is T1, mMate2 (Mus musculus, UniProt Q3V050).
T1 construct: gene Slc47a2; full open reading frame
T1 sequence (Q3V050 1-573): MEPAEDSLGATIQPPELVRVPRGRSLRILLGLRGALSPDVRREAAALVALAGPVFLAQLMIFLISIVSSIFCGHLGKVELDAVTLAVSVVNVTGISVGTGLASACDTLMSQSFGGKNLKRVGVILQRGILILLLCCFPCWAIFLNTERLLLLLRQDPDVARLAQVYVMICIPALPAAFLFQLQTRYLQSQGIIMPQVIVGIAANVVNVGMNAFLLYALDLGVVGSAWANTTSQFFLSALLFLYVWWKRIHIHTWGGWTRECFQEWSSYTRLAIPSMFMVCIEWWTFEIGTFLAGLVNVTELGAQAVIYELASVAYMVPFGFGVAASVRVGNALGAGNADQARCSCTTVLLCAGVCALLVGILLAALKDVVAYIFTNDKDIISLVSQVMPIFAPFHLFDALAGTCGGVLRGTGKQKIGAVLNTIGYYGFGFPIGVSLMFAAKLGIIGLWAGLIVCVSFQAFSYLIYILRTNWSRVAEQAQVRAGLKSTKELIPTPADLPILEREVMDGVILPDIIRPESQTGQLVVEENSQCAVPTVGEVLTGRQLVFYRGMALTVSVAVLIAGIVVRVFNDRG
Description: inhibition of [3H]MPP+ uptake in mMate2-HEK293 cells at […]. It counts as cell-based.

Substrate in data set [2]: O=C(O[C@H]1C[C@H]2CC[C@@H](C1)[N+]21CCCC1)C(O)(c1ccccc1)c1ccccc1
Description: [3H]trospium uptake in stably transfected HEK293 cells, Michaelis-Menten (Km). It counts as cell-based, Mus musculus.

Substrate in data set [3]: C[n+]1ccc(-c2ccccc2)cc1
Description: cells, lysate or membranes.

For the molecule `C[C@H]1COc2c(N3CCN(C)CC3)c(F)cc3c(=O)c(C(=O)O)cn1c23` [levofloxacin], in data set [1], the “inhibition of [3H]MPP+ uptake in mMate2-HEK293 cells at 10 and 100 μM” value is “mMate2 was significantly inhibited by tetraethylammonium (TEA), topotecan, acyclovir, and levofloxacin”.
Still for that read-out and setting: the result for `CC[N+](CC)(CC)CC` [tetraethylammonium] reads “mMate2 was significantly inhibited by tetraethylammonium (TEA), topotecan, acyclovir, and levofloxacin”; that for `Nc1nc2c(ncn2COCCO)c(=O)[nH]1` [acyclovir], “mMate2 was significantly inhibited by tetraethylammonium (TEA), topotecan, acyclovir, and levofloxacin”.
Take `CC[C@@]1(O)C(=O)OCc2c1cc1n(c2=O)Cc2cc3c(CN(C)C)c(O)ccc3nc2-1` [topotecan]: the “inhibition of [3H]MPP+ uptake in mMate2-HEK293 cells at 10 and 100 μM” value in data set [1] was “mMate2 was significantly inhibited by tetraethylammonium (TEA), topotecan, acyclovir, and levofloxacin”.

B1: mMate1 (Mus musculus) (protein)
chain: MERTEESAPGPGGADAASERRGLRCLLLPGFLEELRALLVLAGPAFLAQLMMFLISFISSVFCGHLGKLELDAVTLAIAVINVTGISVGHGLSSACDTLISQTYGSQNLKHVGVILQRGTLILLLCCFPCWALFINTEQILLLFRQDPDVSRLTQTYVMIFIPALPAAFLYTLQVKYLLNQGIVLPQIMTGIAANLVNALANYVFLYHLHLGVMGSALANTISQFALAIFLFLYILWRRLHQATWGGWSWECLQDWASFLRLAIPSMLMLCIEWWAYEVGSFLSGILGMVELGAQSITYELAIIVYMIPSGFSVAANVRVGNALGAGNIDQAKKSSAISLIVTELFAVTFCVLLLGCKDLVGYIFTTDRDIVALVAQVIPIYAVSHLFEGLACTCGGILRGTGNQKVGAIVNAIGYYVIGLPIGIALMFAAKLGVIGLWSGIIICTTCQTTCFLAFIARLNWKRACQQAQVHANLKVNVALNSAVSHEPAHPVCPESHGEIMMTDLEKKDETQLDQPMNQQQALPIRPKDSNKLSGKQLALRRGLLLLGVVLVLVGGILVRVYIRIE
notes: full open reading frame
For the molecule B1, in data set [2], the Km was found to be 29.3 ± 6.7 µM.

B2: mOct1 (Mus musculus) (protein)
chain: MPTVDDVLEHVGEFGWFQKQAFLLLCLISASLAPIYVGIVFLGFTPDHHCRSPGVAELSQRCGWSPAEELNYTVPGLGSAGEASFLSQCMKYEVDWNQSTLDCVDPLSSLAANRSHLPLSPCEHGWVYDTPGSSIVTEFNLVCGDAWKVDLFQSCVNLGFFLGSLVVGYIADRFGRKLCLLVTTLVTSLSGVLTAVAPDYTSMLLFRLLQGMVSKGSWVSGYTLITEFVGSGYRRTTAILYQVAFTVGLVGLAGVAYAIPDWRWLQLAVSLPTFLFLLYYWFVPESPRWLLSQKRTTQAVRIMEQIAQKNRKVPPADLKMMCLEEDASERRSPSFADLFRTPSLRKHTLILMYLWFSCAVLYQGLIMHVGATGANLYLDFFYSSLVEFPAAFIILVTIDRIGRIYPIAASNLVAGAACLLMIFIPHELHWLNVTLACLGRMGATIVLQMVCLVNAELYPTFIRNLGMMVCSALCDLGGIFTPFMVFRLMEVWQALPLILFGVLGLSAGAVTLLLPETKGVALPETIEEAENLGRRKSKAKENTIYLQVQTGKSPHT
notes: full open reading frame
As to B2, the Km in data set [2] is 58.7 ± 15.5 µM.

B3: mOct2 (Mus musculus) (protein)
chain: MPTVDDILEHIGEFHLFQKQTFFLLALLSGAFTPIYVGIVFLGFTPNHHCRSPGVAELSQRCGWSPAEELNYTVPGLGSAGEVSFLSQCMRYEVDWNQSTLDCVDPLSSLAANRSHLPLSPCEHGWVYDTPGSSIVTEFNLVCAHSWMLDLFQSLVNVGFFIGAVGIGYLADRFGRKFCLLVTILINAISGVLMAISPNYAWMLVFRFLQGLVSKAGWLIGYILITEFVGLGYRRTVGICYQIAFTVGLLILAGVAYALPNWRWLQFAVTLPNFCFLLYFWCIPESPRWLISQNKNAKAMKIIKHIAKKNGKSVPVSLQSLTADEDTGMKLNPSFLDLVRTPQIRKHTLILMYNWFTSSVLYQGLIMHMGLAGDNIYLDFFYSALVEFPAAFIIILTIDRIGRRYPWAVSNMVAGAACLASVFIPDDLQWLKITVACLGRMGITIAYEMVCLVNAELYPTYIRNLAVLVCSSMCDIGGIVTPFLVYRLTDIWLEFPLVVFAVVGLVAGGLVLLLPETKGKALPETIEDAEKMQRPRKKKEKRIYLQVKKAELS
notes: full open reading frame
On to B3, for which the Km in data set [2] stood at 78.5 ± 25.9 µM.

B4: mMate2 (Mus musculus) (protein)
chain: T1 sequence (Q3V050 1-573)
On to B4, for which the Km in data set [3] turned out to be 60.0 ± 5.6 µM.

What is called Km is the substrate concentration at which the rate is half of its maximum.
